Consider 30 molecules from patent US9914736B2, “TrKA kinase inhibitors, compositions and methods thereof” (Merck Sharp & Dohme Corp., priority 2014, dated 2018).

The test deals with human TrkA receptor (Homo sapiens (Human), UniProt P04629). Description: DiscoverX PathHunter TrkA functional assay. In kind it is cell-based. Conditions: U2OS cells expressing human TrkA-ProLink, Shc1-EA and p75NTR; compound 1 h, then NGF at ~80% of maximal response for 3 h; luminescence.
Sequence of human TrkA receptor (P04629 33-796): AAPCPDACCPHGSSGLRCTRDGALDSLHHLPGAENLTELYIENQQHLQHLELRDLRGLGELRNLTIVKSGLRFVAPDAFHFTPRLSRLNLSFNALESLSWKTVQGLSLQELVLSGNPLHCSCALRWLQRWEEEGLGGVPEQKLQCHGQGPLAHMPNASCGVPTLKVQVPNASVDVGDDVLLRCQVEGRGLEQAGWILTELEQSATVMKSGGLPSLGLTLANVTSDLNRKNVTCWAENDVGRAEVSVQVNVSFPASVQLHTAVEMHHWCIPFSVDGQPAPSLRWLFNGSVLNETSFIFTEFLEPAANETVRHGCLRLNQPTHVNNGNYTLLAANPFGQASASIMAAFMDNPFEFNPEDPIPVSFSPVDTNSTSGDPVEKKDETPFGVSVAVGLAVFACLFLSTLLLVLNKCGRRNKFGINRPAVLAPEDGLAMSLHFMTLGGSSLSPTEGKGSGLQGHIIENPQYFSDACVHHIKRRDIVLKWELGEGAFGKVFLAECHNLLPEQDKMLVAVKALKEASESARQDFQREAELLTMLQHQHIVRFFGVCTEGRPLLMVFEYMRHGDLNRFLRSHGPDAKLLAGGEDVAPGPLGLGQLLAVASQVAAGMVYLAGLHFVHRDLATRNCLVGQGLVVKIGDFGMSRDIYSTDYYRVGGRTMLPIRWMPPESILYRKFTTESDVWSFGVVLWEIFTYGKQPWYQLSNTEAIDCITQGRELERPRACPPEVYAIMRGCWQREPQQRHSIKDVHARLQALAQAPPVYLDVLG
Description: TrkA functional activity was measured using a DiscoverX PathHunter assay. In this assay, U2OS cells express the human TrkA receptor as a fusion with the weakly complementing fragment of B-galactosidase, which DiscoverX calls “Prolink (PK)”; additionally, Shc1 is fused with a larger fragment, which is called “Enzyme Acceptor (EA)”. Activation of the TrkA receptor, upon NGF addition, results in the kinase domain being phosphorylated, resulting in subsequent recruitment of Shc1-EA protein. That recruitment results in an active B-galactosidase enzyme that is detected by addition of a chemiluminescent substrate. The human p75^NTR protein was also expressed as a co-receptor for NGF.
All reagents were purchased from DiscoverX, except for the receptor agonists (NGF, BDNF, NT3) which were purchased from Peprotech. Cells were expanded and frozen into cryovials, and stored in the vapor phase of liquid nitrogen, and thawed immediately before use. Thawed cells were added to a 384-well plate at 7500 cells/well, and allowed to incubate overnight. Compound at various concentrations was added the following morning and allowed to incubate on cells for 1 h. Then, NGF was added at a concentration sufficient to elicit ˜80% of a maximal response and allowed to incubate for 3 h at ambient temperature. DiscoverX PathHunter detection reagent was then added and the plate was further incubated for 1 h in the dark. The plate was then read via luminescence on the Perkin Elmer Envision.
Broadly, the IC50 is the concentration at which inhibition is half-maximal. As for `Cn1ccc(-c2cc(C(=O)Nc3cc(-c4ccc(=O)[nH]n4)nn3-c3ccccc3)ccc2OC(F)(F)F)n1` [Compound 71, 3-(1-methyl-1H-pyrazol-3-yl)-N-[3-(6-oxo-1,6-dihydropyridazin-3-yl)-1-phenyl-1H-pyrazol-5-yl]-4-(trifluoromethoxy)benzamide], the IC50 amounted to 89 nM.
As for `Cc1nc(-c2ccccc2)c(NC(=O)c2ccc(C(F)(F)F)c(-c3ccn(C)n3)c2)s1` [Compound 32, N-(2-methyl-4-phenyl-1,3-thiazol-5-yl)-3-(1-methyl-1H-pyrazol-3-yl)-4-(trifluoromethyl)benzamide], the half-inhibitory concentration (IC50) amounted to 6 nM.
The molecule `Cn1ccc(-c2cc(C(=O)Nc3cc(CC(N)=O)nn3-c3ccc(F)cc3)c(F)cc2C(F)(F)F)n1` [Compound 111, N-(3-(2-amino-2-oxoethyl)-1-(4-fluorophenyl)-1H-pyrazol-5-yl)-2-fluoro-5-(1-methyl-1H-pyrazol-3-yl)-4-(trifluoromethyl)benzamide] yielded an IC50 of 2.4 nM.
For the molecule `Cc1cc(-n2nc(-c3ccc(=O)[nH]n3)cc2NC(=O)c2ccc(C(F)(F)F)c(-c3ncccn3)c2)n[nH]1` [Compound 57, N-[5′-methyl-3-(6-oxo-1,6-dihydropyridazin-3-yl)-1′H-1,3′-bipyrazol-5-yl]-3-pyrimidin-2-yl-4-(trifluoromethyl)benzamide], the IC50 came out at 78 nM.
In the case of `Cc1cc(-n2nc(-c3cnn(C)c3)cc2NC(=O)c2ccc(C(F)(F)F)c(-c3cccnc3)c2)n[nH]1` [Compound 8, N-(1″,5-dimethyl-1H,1″H-3,1′:3′,4″-terpyrazol-5′-yl)-3-pyridin-3-yl-4-(trifluoromethyl)benzamide] it was 2100 nM; in that of `Cc1cc(-n2nc(C(=O)NCc3ccns3)cc2NC(=O)c2ccc(C(F)(F)F)c(-c3ccn(C)n3)c2)[nH]n1` [Compound 25, N-(isothiazol-5-ylmethyl)-5′-methyl-5-({[3-(1-methyl-1H-pyrazol-3-yl)-4-(trifluoromethyl)phenyl]carbonyl}amino)-2′H-1,3′-bipyrazole-3-carboxamide], 1.7 nM.
In turn, `O=C(Nc1cc(-c2ccncc2)nn1-c1ccccc1)c1cc(-c2cc[nH]n2)c(C(F)(F)F)cc1Cl` [Compound 39, 2-chloro-N-(1-phenyl-3-pyridin-4-yl-1H-pyrazol-5-yl)-5-(1H-pyrazol-3-yl)-4-(trifluoromethyl)benzamide] returned a concentration for half-maximal inhibition (IC50) of 2.9 nM.
The figure for `Cc1nc(-c2ccncc2)c(NC(=O)c2ccc(C(F)(F)F)c(-c3ccn(C)n3)c2)n1C` [Compound 52, N-(1,2-dimethyl-4-pyridin-4-yl-1H-imidazol-5-yl)-3-(1-methyl-1H-pyrazol-3-yl)-4-(trifluoromethyl)benzamide] is 2100 nM.
The figure for `CC(=O)n1cc(NC(=O)c2ccc(C(F)(F)F)c(-c3ccn(C)n3)c2)c(-c2ccccc2)n1` [Compound 33, N-(1-acetyl-3-phenyl-1H-pyrazol-4-yl)-3-(1-methyl-1H-pyrazol-3-yl)-4-(trifluoromethyl)benzamide] is 18 nM; for `Cc1nc(-c2ccccc2)c(NC(=O)c2ccc(C(F)(F)F)cc2F)s1` [Compound 1, 2-fluoro-N-(2-methyl-4-phenyl-1,3-thiazol-5-yl)-4-(trifluoromethyl)benzamide] it is 780 nM.
For `Cn1ccc(-c2cc(C(=O)Nc3cc(-c4ccc(=O)[nH]n4)nn3-c3ccccc3)c(Cl)cc2C(F)(F)F)n1` [Compound 55, 2-chloro-5-(1-methyl-1H-pyrazol-3-yl)-N-[3-(6-oxo-1,6-dihydropyridazin-3-yl)-1-phenyl-1H-pyrazol-5-yl]-4-(trifluoromethyl)benzamide], the IC50 was determined as 1.6 nM.
As for `Cn1ccc(-c2cc(C(=O)Nc3cc(Cc4nnn(C)n4)nn3-c3ccccc3)c(Cl)cc2C(F)(F)F)n1` [Compound 58, 2-chloro-5-(1-methyl-1H-pyrazol-3-yl)-N-{3-[(2-methyl-2H-tetrazol-5-yl)methyl]-1-phenyl-1H-pyrazol-5-yl}-4-(trifluoromethyl)benzamide], the concentration for half-maximal inhibition (IC50) came to 3.4 nM. This IC50 lies about 2.1-fold higher than the previous one.
The figure for `Cc1cc(NC(=O)c2cc(-c3cc[nH]n3)ccc2Cl)n(-c2cc(C)[nH]n2)n1` [Compound 54, 2-chloro-N-(3,5′-dimethyl-1′H-1,3′-bipyrazol-5-yl)-5-(1H-pyrazol-3-yl)benzamide] is 490 nM; for `Cc1cc(-n2nc(CO)cc2NC(=O)c2ccc(C(F)(F)F)c(-c3ccn(C)n3)c2)[nH]n1` [Compound 51] it is 2.9 nM; for `Cc1cc(-n2nc(CN3CCCC3)cc2NC(=O)c2ccc(C(F)(F)F)c(-c3ccn(C)n3)c2)[nH]n1` [Compound 69, 3-(1-methyl-1H-pyrazol-3-yl)-N-[5′-methyl-3-(pyrrolidin-1-ylmethyl)-2′H-1,3′-bipyrazol-5-yl]-4-(trifluoromethyl)benzamide] it is 240 nM.
Molecule `Cn1ccc(-c2cc(C(=O)Nc3cc(CN4C(=O)CNC4=O)nn3-c3ccc(F)cc3)c(F)cc2C(F)(F)F)n1` [Compound 112, N-(3-((2,5-dioxoimidazolidin-1-yl)methyl)-1-(4-fluorophenyl)-1H-pyrazol-5-yl)-2-fluoro-5-(1-methyl-1H-pyrazol-3-yl)-4-(trifluoromethyl)benzamide] had an IC50 of 1.9 nM. This IC50 lies about 130-fold lower than the previous one.
For the molecule `CC(O)c1cnc(-c2cc(NC(=O)c3cc(-c4ccn(C)n4)c(C(F)(F)F)cc3F)n(-c3ccc(F)cc3)n2)nc1` (single isomer, unassigned) [Compound 107, (S or R)-2-fluoro-N-(1-(4-fluorophenyl)-3-(5-(1-hydroxyethyl)pyrimidin-2-yl)-1H-pyrazol-5-yl)-5-(1-methyl-1H-pyrazol-3-yl)-4-(trifluoromethyl)benzamide], the IC50 is 1 nM.
In the case of `Cn1ccc(-c2cc(C(=O)Nc3cc(Cc4cnc(N)nc4)nn3-c3ccc(F)cc3)ccc2C(F)(F)F)n1` [Compound 91, N-(3-((2-aminopyrimidin-5-yl)methyl)-1-(4-fluorophenyl)-1H-pyrazol-5-yl)-3-(1-methyl-1H-pyrazol-3-yl)-4-(trifluoromethyl)benzamide] it was 6.1 nM.
Molecule `Cn1ccc(-c2cc(C(=O)Nc3cc(Cc4cnc(N)cn4)nn3-c3ccc(F)cc3)ccc2C(F)(F)F)n1` [Compound 94, N-(3-((5-aminopyrazin-2-yl)methyl)-1-(4-fluorophenyl)-1H-pyrazol-5-yl)-3-(1-methyl-1H-pyrazol-3-yl)-4-(trifluoromethyl)benzamide] displayed an IC50 of 1.7 nM.
Turning to `Cn1ccc(-c2cc(C(=O)Nc3cc(-c4n[nH]c(=O)n4C)nn3-c3ccccc3)ccc2C(F)(F)F)n1` [Compound 16, N-[3-(4-methyl-5-oxo-4,5-dihydro-1H-1,2,4-triazol-3-yl)-1-phenyl-1H-pyrazol-5-yl]-3-(1-methyl-1H-pyrazol-3-yl)-4-(trifluoromethyl)benzamide], half-maximal inhibition (IC50) was put at 46 nM.
For the molecule `Cn1ccc(-c2cc(C(=O)Nc3cc(-c4ccc(=O)[nH]n4)nn3-c3ccccc3)ccc2C(F)(F)F)n1` [Compound 11, 3-(1-methyl-1H-pyrazol-3-yl)-N-[3-(6-oxo-1,6-dihydropyridazin-3-yl)-1-phenyl-1H-pyrazol-5-yl]-4-(trifluoromethyl)benzamide], the IC50 was found to be 5.5 nM.
The molecule `Cn1ccc(-c2cc(C(=O)Nc3cc(Cc4nnnn4C)nn3-c3ccccc3)c(Cl)cc2C(F)(F)F)n1` [Compound 80, 2-chloro-5-(1-methyl-1H-pyrazol-3-yl)-N-(3-((1-methyl-1H-tetrazol-5-yl)methyl)-1-phenyl-1H-pyrazol-5-yl)-4-(trifluoromethyl)benzamide] had an IC50 of 0.78 nM.
In turn, `Cc1cnn(-c2ccccc2)c1NC(=O)c1cc(-c2ccn(C)n2)c(C(F)(F)F)cc1Cl` [Compound 46, 2-chloro-N-(4-methyl-1-phenyl-1H-pyrazol-5-yl)-5-(1-methyl-1H-pyrazol-3-yl)-4-(trifluoromethyl)benzamide] yielded an IC50 of 13 nM.
Molecule `Cn1ccc(-c2cc(C(=O)Nc3[nH]ncc3-c3ccccc3)c(Cl)cc2C(F)(F)F)n1` [Compound 45, 2-chloro-5-(1-methyl-1H-pyrazol-3-yl)-N-(4-phenyl-1H-pyrazol-5-yl)-4-(trifluoromethyl)benzamide] returned an IC50 of 7 nM. Against the preceding molecule, the IC50 is about 1.9-fold lower.
With `Cn1ccc(-c2cc(C(=O)Nc3cc(-c4ccncc4)nn3-c3cc(C(F)(F)F)n[nH]3)ccc2Cl)n1` [Compound 40, 4-chloro-3-(1-methyl-1H-pyrazol-3-yl)-N-[3-pyridin-4-yl-5′-(trifluoromethyl)-2′H-1,3′-bipyrazol-5-yl]benzamide], half-maximal inhibition (IC50) was put at 3.2 nM.
As for `CNC(=O)Cn1nnc(Cc2cc(NC(=O)c3ccc(C(F)(F)F)c(-c4ccn(C)n4)c3)n(-c3ccc(F)cc3)n2)n1` [Compound 78, N-[1-(4-fluorophenyl)-3-({2-[2-(methylamino)-2-oxoethyl]-2H-tetrazol-5-yl}methyl)-1H-pyrazol-5-yl]-3-(1-methyl-1H-pyrazol-3-yl)-4-(trifluoromethyl)benzamide], the IC50 worked out at 1.6 nM. Compared with the last molecule, the IC50 is about 2-fold lower.
The molecule `O=C(Nc1cc(-c2ccncc2)nn1-c1ccc(F)cc1)c1ccc(C(F)(F)F)c(-c2cc[nH]c(=O)c2)c1` [Compound 47, N-[1-(4-fluorophenyl)-3-pyridin-4-yl-1H-pyrazol-5-yl]-3-(2-oxo-1,2-dihydropyridin-4-yl)-4-(trifluoromethyl)benzamide] displayed an IC50 of 1240 nM. This IC50 is about 780-fold higher than that of the molecule before.
The figure for `Cn1ccc(-c2cc(C(=O)Nc3cc(Cc4ccc(=O)[nH]n4)nn3-c3ccccc3)ccc2C(F)(F)F)n1` [Compound 28, 3-(1-methyl-1H-pyrazol-3-yl)-N-{3-[(6-oxo-1,6-dihydropyridazin-3-yl)methyl]-1-phenyl-1H-pyrazol-5-yl}-4-(trifluoromethyl)benzamide] is 6.6 nM; for `O=C(Nc1cc(CCO)nn1-c1ccc(F)cc1)c1cc(-c2ncccn2)c(C(F)(F)F)cc1F` [Compound 93, 2-fluoro-N-(1-(4-fluorophenyl)-3-(2-hydroxyethyl)-1H-pyrazol-5-yl)-5-(pyrimidin-2-yl)-4-(trifluoromethyl)benzamide] it is 12 nM; for `Cc1cc(-n2nc(C(=O)NC3CN(C)C3)cc2NC(=O)c2ccc(C(F)(F)F)c(-c3ccn(C)n3)c2)[nH]n1` [Compound 27, 5′-methyl-N-(1-methylazetidin-3-yl)-5-({[3-(1-methyl-1H-pyrazol-3-yl)-4-(trifluoromethyl)phenyl]carbonyl}amino)-2′H-1,3′-bipyrazole-3-carboxamide] it is 10 nM.
